Data from patent US11964973B2 (priority 2019, dated 2024).
Read-outs that look alike come from different tables or passages of the source.

Assays:
[1] = biological target: human DGKζ (Homo sapiens (Human), UniProt Q13574); assay: biochemical; assay type: biochemical
[2] = biological target: Human DGKα(9-727) (Homo sapiens (Human), UniProt P23743); assay: biochemical; settings: Table A; liposome (LIPGLO) assay; read-out: DGKα
[3] = system: Human venous whole blood (IFN-γ); assay: Human whole blood IFN-γ assay; assay type: cell-based
Description: Assay 10: Human Whole Blood IFN-γ Assay
Human venous whole blood (22.5 μL per well), obtained from healthy donors, was pre-treated with compounds for one hour at 37° C. in a humidified 95% air/5% CO2 incubator. The blood was stimulated with 2.5 μL anti-human CD3 and anti-CD28 mAb at a final concentration of 1 μg/mL each for 24 hours at 37° C. IFN-γ in the supernatants was measured using AlphLISA kit (Cat #AL217).

[4] = system: human venous whole blood, CD8 positive population (pERK); assay: DGK human whole blood pERK assay; assay type: cell-based; settings: read-out: DGK HWB pERK IC50
In short: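 Read-out is the pERK-positive fraction of CD8+ cells measured by flow cytometry. Donor venous blood (heparin) saw compound for one hour at 37° C before a 15-minute anti-CD3 challenge (1 μg/mL final) with cross-linking anti-mouse IgG.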

[5] = biological target: DGKα (Homo sapiens (Human), UniProt P23743); assay: biochemical; assay type: biochemical
[6] = Table A, liposome (LIPGLO) assay, read-out: DGKζ
[7] = liposome (LIPGLO) assay, read-out: DGKζ LIPGLO IC50
[8] = Homo sapiens, 24 h, human whole blood, anti-CD3 plus anti-CD28, 24 hours, read-out: INFg Whole Blood Normalized Agonist EC50
[9] = human whole blood, CD8 positive population
[10] = liposome (LIPGLO) assay, read-out: DGKα LIPGLO IC50
[11] = human whole blood, anti-CD3 plus anti-CD28, 24 hours, read-out: INFg Whole Blood Normalized Agonist EC50
[12] = read-out: INFg Whole Blood Normalized Agonist EC50, human whole blood, anti-CD3 plus anti-CD28, 24 hours

Sequence of human DGKζ (Q13574 whole entry, looked up): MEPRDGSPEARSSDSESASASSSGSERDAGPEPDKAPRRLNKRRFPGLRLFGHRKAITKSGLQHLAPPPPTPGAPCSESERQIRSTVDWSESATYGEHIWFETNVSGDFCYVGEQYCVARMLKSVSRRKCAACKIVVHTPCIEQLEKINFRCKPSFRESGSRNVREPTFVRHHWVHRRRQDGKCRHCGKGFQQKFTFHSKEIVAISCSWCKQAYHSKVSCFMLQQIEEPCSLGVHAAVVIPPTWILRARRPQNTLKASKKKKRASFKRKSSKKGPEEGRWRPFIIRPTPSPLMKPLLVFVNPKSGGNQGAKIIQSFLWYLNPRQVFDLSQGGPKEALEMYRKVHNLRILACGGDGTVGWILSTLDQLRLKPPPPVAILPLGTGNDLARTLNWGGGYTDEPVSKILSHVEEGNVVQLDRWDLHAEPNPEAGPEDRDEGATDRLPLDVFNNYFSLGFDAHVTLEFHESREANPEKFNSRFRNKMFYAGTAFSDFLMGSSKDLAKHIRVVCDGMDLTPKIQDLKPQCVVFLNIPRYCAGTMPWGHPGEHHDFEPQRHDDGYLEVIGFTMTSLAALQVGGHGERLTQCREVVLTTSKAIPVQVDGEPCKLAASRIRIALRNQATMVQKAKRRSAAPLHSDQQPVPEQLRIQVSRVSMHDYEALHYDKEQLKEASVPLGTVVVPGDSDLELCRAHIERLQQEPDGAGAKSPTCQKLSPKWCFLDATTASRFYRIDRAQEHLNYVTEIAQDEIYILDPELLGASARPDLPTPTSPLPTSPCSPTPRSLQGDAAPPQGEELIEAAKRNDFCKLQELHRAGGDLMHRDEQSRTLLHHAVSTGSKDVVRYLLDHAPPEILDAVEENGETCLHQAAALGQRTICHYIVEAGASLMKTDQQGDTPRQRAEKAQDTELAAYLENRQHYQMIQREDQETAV
Sequence of DGKα (P23743 whole entry, looked up): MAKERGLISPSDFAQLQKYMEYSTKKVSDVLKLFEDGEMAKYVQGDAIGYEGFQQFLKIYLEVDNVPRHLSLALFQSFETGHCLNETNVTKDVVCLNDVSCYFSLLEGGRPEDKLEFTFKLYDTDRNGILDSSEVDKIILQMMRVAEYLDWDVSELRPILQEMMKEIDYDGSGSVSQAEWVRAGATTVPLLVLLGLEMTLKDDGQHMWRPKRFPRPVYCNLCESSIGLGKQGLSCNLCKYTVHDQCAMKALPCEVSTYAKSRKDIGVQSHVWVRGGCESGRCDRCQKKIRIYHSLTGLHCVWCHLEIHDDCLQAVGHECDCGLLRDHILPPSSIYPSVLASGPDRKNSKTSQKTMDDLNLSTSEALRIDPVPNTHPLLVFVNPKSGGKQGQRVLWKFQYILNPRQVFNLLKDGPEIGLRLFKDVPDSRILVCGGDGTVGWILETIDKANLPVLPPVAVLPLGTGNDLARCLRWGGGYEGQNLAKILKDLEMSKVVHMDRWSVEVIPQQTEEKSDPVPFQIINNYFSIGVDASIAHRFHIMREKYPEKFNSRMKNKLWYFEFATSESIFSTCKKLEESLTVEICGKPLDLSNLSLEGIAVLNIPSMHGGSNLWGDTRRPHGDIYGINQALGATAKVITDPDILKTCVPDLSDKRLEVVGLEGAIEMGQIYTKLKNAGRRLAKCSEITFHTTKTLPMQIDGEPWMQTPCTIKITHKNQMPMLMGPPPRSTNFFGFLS
Sequence of Human DGKα(9-727) (P23743 whole entry, looked up): as above

| Compound | IC50 [1, 7] [µM] | EC50 [3, 8] [µM] | IC50 [4, 9] [µM] | IC50 [5, 10] [µM] | also measured |
| --- | --- | --- | --- | --- | --- |
| CC(C)Oc1ccc(O[C@H]2CCN(c3cc(=O)n(C)c4ccc(C#N)nc34)C[C@@H]2O)nc1 (single isomer, unassigned) [Example 268, (±)-trans-8-(3-hydroxy-4-((5-isopropoxypyridin-2-yl)oxy)piperidin-1-yl)-5-methyl-6-oxo-5,6-dihydro-1,5-naphthyridine-2-carbonitrile] |  |  |  |  | IC50 [1, 6]: 17 µM; IC50 [2]: 1.3 µM |
| CC(C)Oc1ccc(OC2CCN(c3cc(=O)n(C)c4ccc(C#N)nc34)CC2)nc1 [Example 66, 8-(4-((5-isopropoxypyridin-2-yl)oxy)piperidin-1-yl)-5-methyl-6-oxo-5,6-dihydro-1,5-naphthyridine-2-carbonitrile] | 4 | 0.82 | 2.7 | 1.2 |  |
| CC(C)c1ccc(O[C@@H]2CCN(c3cc(=O)n(C)c4ccc(C#N)nc34)C[C@H]2C)cc1 [Example 94, 8-((3R,4R)-4-(4-isopropylphenoxy)-3-methylpiperidin-1-yl)-5-methyl-6-oxo-5,6-dihydro-1,5-naphthyridine-2-carbonitrile] | 6.1 | 1.1 | 3.9 | 0.08 |  |
| CCC(C)(C)c1ccc(O[C@H]2CCN(c3cc(=O)n(C)c4ccc(C#N)nc34)C[C@H]2C)cc1 (single isomer, unassigned) [Example 170] | 1.1 |  | 0.54 | 0.37 | EC50 [3, 11]: 0.86 µM |
| CC[C@@H]1CN(c2cc(=O)n(C)c3ccc(C#N)nc23)CC[C@@H]1Oc1cccc(C(F)(F)F)c1 [Example 168] | 0.89 |  | 3.7 | 1 | EC50 [3, 11]: 1.6 µM |
| CO[C@@H]1CN(c2nc(=O)n(C)c3ccc(C#N)nc23)CC[C@H]1Oc1cccc(C(F)(F)F)c1 (single isomer, unassigned) [Example 276] |  |  |  |  | IC50 [1, 6]: 2 µM; IC50 [2]: 1 µM |
| CC[C@@H]1CN(c2cc(=O)n(C)c3ccc(C#N)nc23)CC[C@H]1Oc1cccc(C(C)C)c1 (single isomer, unassigned) [Example 139] | 1.7 |  |  | 0.1 | EC50 [3, 12]: 1.5 µM; IC50 ([4]; Homo sapiens, CD8 positive): 5.3 µM |
| Cc1nccc(OC2CCN(c3cc(=O)n(C)c4ccc(C#N)nc34)CC2)n1 [Example 72, 5-methyl-8-(4-((2-methylpyrimidin-4-yl)oxy)piperidin-1-yl)-6-oxo-5,6-dihydro-1,5-naphthyridine-2-carbonitrile] | 39 | 20 | 20 | 4.2 |  |
| CC(C)c1ccc(O[C@H]2CCN(c3cc(=O)n(C)c4ccc(C#N)nc34)C[C@H]2C)cc1 (single isomer, unassigned) [Example 178] | 0.53 |  | 2.3 | 0.062 | EC50 [3, 11]: 4.6 µM |
| Cn1c(=O)cc(N2CCC(Oc3ccnc(C(F)(F)F)n3)CC2)c2nc(C#N)ccc21 [Example 76, 5-methyl-6-oxo-8-(4-((2-(trifluoromethyl)pyrimidin-4-yl)oxy)piperidin-1-yl)-5,6-dihydro-1,5-naphthyridine-2-carbonitrile] | 34 | 20 | 20 | 11 |  |
| Cc1cc(OC2CCN(c3cc(=O)n(C)c4ccc(C#N)nc34)CC2)nc(C(C)C)n1 [Example 78, 8-(4-((2-isopropyl-6-methylpyrimidin-4-yl)oxy)piperidin-1-yl)-5-methyl-6-oxo-5,6-dihydro-1,5-naphthyridine-2-carbonitrile] | 16 |  | 20 | 0.81 |  |
| Cc1cccc(O[C@@H]2CCN(c3cc(=O)n(C)c4ccc(C#N)nc34)C[C@H]2C)c1 [Example 107, 5-methyl-8-((3R,4R)-3-methyl-4-(m-tolyloxy)piperidin-1-yl)-6-oxo-5,6-dihydro-1,5-naphthyridine-2-carbonitrile] |  | 13 |  |  | IC50 ([1]; DGKζ LIPGLO IC50): 24 µM; IC50 ([5]; DGKα LIPGLO IC50): 0.13 µM |
| Cc1ccc(O[C@@H]2CCN(c3cc(=O)n(C)c4ccc(C#N)nc34)C[C@H]2C)cc1 (single isomer, unassigned) [Example 120] | 73 | 4.7 |  | 0.35 |  |
| C[C@@H]1CN(c2cc(=O)n(C)c3ccc(C#N)nc23)CC[C@H]1Oc1cccc(C2CC2)c1 (single isomer, unassigned) [Example 93] | 18 |  |  | 0.3 | EC50 [3, 11]: 5.9 µM |
| C[C@@H]1CN(c2c(C#N)c(=O)n(C)c3ccc(C#N)nc23)CC[C@@H]1Oc1ccc(C(F)(F)F)cc1 [Example 190, 5-methyl-8-((3R,4S)-3-methyl-4-(4-(trifluoromethyl)phenoxy)piperidin-1-yl)-6-oxo-5,6-dihydro-1,5-naphthyridine-2,7-dicarbonitrile] |  |  |  |  | IC50 [1, 6]: 3.1 µM; EC50 ([3]; human whole blood IFN-γ, read-out: INFg Whole Blood): 20 µM; IC50 ([5]; Table A, liposome (LIPGLO) assay, read-out: DGKα): 2.2 µM |
| CC[C@@H]1CN(c2cc(=O)n(C)c3ccc(C#N)nc23)CC[C@H]1Oc1cccc(C(F)(F)F)c1 (single isomer, unassigned) [Example 142] | 1.1 |  |  | 4.7 | EC50 [3, 11]: 3 µM |
| CC[C@@H]1CN(c2cc(=O)n(C)c3ccc(C#N)nc23)CC[C@@H]1Oc1cccc(C(C)(C)C)c1 [Example 165, 8-((3R,4S)-4-(3-(tert-butyl)phenoxy)-3-ethylpiperidin-1-yl)-5-methyl-6-oxo-5,6-dihydro-1,5-naphthyridine-2-carbonitrile] | 1.2 |  |  | 0.096 | EC50 [3, 12]: 0.84 µM |
| CCC(C)(C)c1ccc(O[C@H]2CCN(c3cc(=O)n(C)c4ccc(C#N)nc34)C[C@H]2C)cc1 [Example 169, 5-methyl-8-((3R,4S)-3-methyl-4-(4-(tert-pentyl)phenoxy)piperidin-1-yl)-6-oxo-5,6-dihydro-1,5-naphthyridine-2-carbonitrile] |  | 1.7 |  |  | IC50 ([1]; read-out: DGKζ LIPGLO IC50): 1.4 µM; IC50 ([5]; read-out: DGKα LIPGLO IC50): 0.6 µM |
| C[C@@H]1CN(c2cc(=O)n(C)c3ccc(C#N)nc23)CC[C@H]1Oc1ccc(C2CCCC2)cc1 (single isomer, unassigned) [Example 102] | 83 |  |  | 0.068 | EC50 [3, 11]: 3.3 µM |
| CC[C@@H]1CN(c2cc(=O)n(C)c3ccc(C#N)nc23)CC[C@H]1Oc1ccc(OC(C)(C)C)cc1 [Example 158, 8-((3R,4R)-4-(4-(tert-butoxy)phenoxy)-3-ethylpiperidin-1-yl)-5-methyl-6-oxo-5,6-dihydro-1,5-naphthyridine-2-carbonitrile] |  | 2 |  |  | IC50 ([1]; read-out: DGKζ LIPGLO IC50): 1.9 µM; IC50 ([5]; read-out: DGKα LIPGLO IC50): 0.36 µM |
| CC[C@@H]1CN(c2cc(=O)n(C)c3ccc(C#N)nc23)CC[C@@H]1Oc1cccc(C(C)(C)C)c1 [Example 167, 8-((3R,4S)-4-(3-(tert-butyl)phenoxy)-3-ethylpiperidin-1-yl)-5-methyl-6-oxo-5,6-dihydro-1,5-naphthyridine-2-carbonitrile] | 1 |  |  | 0.12 | EC50 [3, 12]: 1.6 µM; IC50 ([4]; Homo sapiens, CD8 positive): 2 µM |
| CCCCCc1ccc(OC2CCN(c3cc(=O)n(C)c4ccc(C#N)nc34)CC2)cc1 [Example 62, 5-methyl-6-oxo-8-(4-(4-pentylphenoxy)piperidin-1-yl)-5,6-dihydro-1,5-naphthyridine-2-carbonitrile] | 5.2 | 20 |  | 1.5 |  |
| Cn1c(=O)cc(N2CCC(Oc3nncc4ccccc34)CC2)c2nc(C#N)ccc21 [Example 75, 5-methyl-6-oxo-8-(4-(phthalazin-1-yloxy)piperidin-1-yl)-5,6-dihydro-1,5-naphthyridine-2-carbonitrile] | 18 | 20 |  | 27 |  |
